Values of other authors in patent US20090203786A1, “Methods and Composition for Improving Cognitive Function” (priority 2005, published 2009).

Settings: Connor W E et al. (1990)

half-life of DHA in brain (Rhesus monkey brain): 21 days
Cerebral DHA concentration relative to pre-supplementation value (Rhesus monkeys, stabilized after 12 weeks of supplementation): 7 times
Structure (SMILES): CC/C=C\C/C=C\C/C=C\C/C=C\C/C=C\C/C=C\CCC(=O)O [DHA, docosahexaenoic acid]
